One assay concerns HepG2 cell line. In words: MTT anti-proliferative assay, HepG2. In kind it is cell-based. The following applies: Homo sapiens, 48 h, three independent experiments, read-out: In vitro cytotoxicity IC50, HepG2. As for the experimental part:
(§1) In vitro antiproliferative activities of the target molecules were assessed against two human cancer cell lines namely, hepatocellular carcinoma (HepG2) and colorectal carcinoma (HCT-116) using MTT assay.
(§2) The anti-proliferative activity of the synthesized compounds was assessed using MTT assay protocol. A panel of human cancer cell lines namely, colorectal carcinoma (HCT-116) and hepatocellular carcinoma (HepG2) was used in this test. Doxorubicin was used as a positive control. The cell lines were got from ATCC (American Type Culture Collection) via the Holding company for biological products and vaccines (VACSERA, Cairo, Egypt). The anti-proliferative activities of the tested compounds were determined quantitatively as follows:
(§3) At first, the cells were cultured into a medium of RPMI-1640 with 10% fetal bovine serum. Then, two different antibiotics were added at 37°C in a 5% CO2 incubator: penicillin (100 units/mL) and streptomycin (100 μg/mL). Next, we seeded the cells in a 96-well plate by a density of 1.0 x 10^4 cells / well at 37°C for 48 h under 5% CO2. The synthesized compounds with different concentrations were applied into the cell lines and incubated for 48 h. After 48 h, 20 μl of MTT solution (5mg/mL) was added and incubated for 4 h. Then, DMSO (100 μl) was added into each well to dissolve the formed purple formazan. After that, a colorimetric assay was measured and recorded at absorbance of 570 nm using a plate reader (EXL 800, USA). The relative cell viability in percentage was calculated as (A570 of treated samples/A570 of untreated sample) X 100.
(§4) S2: Biological evaluation
(§5) S2.1. In vitro cytotoxic activity
(§6) The anti-proliferative activity of the synthesized compounds was assessed using MTT assay protocol. A panel of human cancer cell lines namely, colorectal carcinoma (HCT-116) and hepatocellular carcinoma (HepG2) was used in this test. As we targeted the DNA and Topo […]
(§7) cell lines were got from ATCC (American Type Culture Collection) via the Holding company for biological products and vaccines (VACSERA, Cairo, Egypt). The anti -proliferative activities of the tested compounds were determined quantitatively as follows:
(§8) At first, the cells were cultured into a medium of RPMI-1640 with 10% fetal bovine serum.
(§9) Then, two different antibiotics were added at 37 ᵒC in a 5% CO2 incubator: penicillin (100 units/mL) and streptomycin (100 µg/mL). Next, we seeded the cells in a 96 -well plate by a density of 1.0 x 10^4 cells / well at 37 ᵒC for 48 h under 5% CO2. The synthesized compounds with different concentrations were applied into the cell lines and incubated for 48 h. After 48 h, 20 µl of MTT solution (5mg/mL) was added and incubated for 4 h. Then, DMSO (100 µl) was added into each well to dissolve the formed purple formazan. After that, a colorimetric assay was measured and recorded at absorbance of 570 nm using a plate reader (EXL 800, USA). The relative cell viability in percentage was calculated as (A570 of treated samples/A570 of untreated sample) X 100. […]
A general note: Formazan colour is commonly taken as a measure of viable cells.

The test system of assay [1] is Activated Calf Thymus DNA. Put plainly: DNA/methyl green assay (DNA intercalation). The format is binding. The following applies: for LogIC50 (best-fit value, DNA/Topo-II Inhibition (%) curve): log of drug concentration in uM. As for the experimental part:
The most promising members (13a, 14a, 16, 17, 18, 19, and 20) were further investigated for their binding affinity against DNA. […] The results of DNA-binding affinities were reported in Table 1 as IC50 values calculated from the concentration-inhibition response curve.
Activated Calf Thymus DNA (Merk, Germany) was treated with methyl green (Merk, Germany), then the synthesized compounds were applied to displace the methyl green dye, producing equivalent color.
After that, the DNA was run on 1% agarose gel in BioRad gel electrophoresis system for 1–2 h followed by staining with GelRedTM stain for 2 h and destained for 15 min with TAE buffer. The gel was imaged via BioRad’s Gel DocTMEZ system. Both supercoiled and linear strands DNA were incorporated in the gel as markers for DNA-Topo II intercalators. The results of IC50 values were calculated using the GraphPad Prism version 7. Each reaction was performed in duplicate, and at least three independent determinations of each IC50 were made.
S2.3. DNA/Methyl Green Assay […]
methyl green dye method described by Burres et al. Activated Calf Thymus DNA (Merk, Germany) was treated with methyl green (Merk, Germany), then the synthesized compounds were applied to displace the methyl green dye, producing equivalent color. […]

In assay [2] the target is T1, Topoisomerase II (Topo II) (Homo sapiens, UniProt P11388).
T1 construct: purchased TopoGEN, Inc., Columbus
Put plainly: In vitro Topo II inhibitory assay (TopoGEN Topo II drug screening kit). The format is biochemical. Here is the method: The reported method described by Patra et al was applied using Topo II drug screening kit (TopoGEN, Inc., Columbus).
A typical enzyme reaction was structured to determine Topo II activity. The reaction mixture included Topo II (2 μl), substrate super coiled pHot1 DNA (0.25 μg), 50 μg/ml test compound (2 μl), and assay buffer (4 μl). To start the reaction, the mixture was allowed to incubate in 37°C for 30 min. To terminate the reaction, a mixture of 10% sodium dodecylsulphate (2 μl) and proteinase K (50 μg/mL) was added at 37°C for 15 min. then incubated for 15 min at 37°C.
(§10) After that, the DNA was run on 1% agarose gel in BioRad gel electrophoresis system for 1–2 h followed by staining with GelRedTM stain for 2 h and destained for 15 min with TAE buffer. The gel was imaged via BioRad’s Gel DocTMEZ system. Both supercoiled and linear strands DNA were incorporated in the gel as markers for DNA-Topo II intercalators. The results of IC50 values were calculated using the GraphPad Prism version 7. Each reaction was performed in duplicate, and at least three independent determinations of each IC50 were made. […]
S2.2. Measurement of topoisomerase II Activity […]
analyzed for their Topo II inhibitory activities. The reported method described by Patra et al was applied using Topo II drug screening kit (TopoGEN, Inc., Columbus).
A typical enzyme reaction was structured to determine Topo II activity. The reaction mixture included Topo II (2 µl), substrate super coiled pHot1 DNA (0.25 µg), 50 µg/ml test compound (2 µl), and assay buffer (4 µl). To start the reaction, the mixture was allowed to incubate in 37 °C for 30 min. To terminate the reaction, a mixture of 10% sodium dodecylsulphate (2 µl) and proteinase K (50 µg/mL) was added at 37 °C for 15 min. then incubated for 15 min at 37 °C.
as §10

For another assay, the system named is HCT-116 cell line. Put plainly: MTT anti-proliferative assay, HCT-116. The format is cell-based. To be noted: Homo sapiens, 48 h, three independent experiments, read-out: In vitro cytotoxicity IC50, HCT-116. Here is the method: as §1, §2, §3, §4, §5, §6, §7, §8, §9
[3] abbreviates: 50% inhibition concentration of DNA/methyl green assay, read-out: DNA/Methyl green (IC50).

Like-named read-outs stand apart in the source and are kept apart here.

T1 sequence (P11388 whole entry): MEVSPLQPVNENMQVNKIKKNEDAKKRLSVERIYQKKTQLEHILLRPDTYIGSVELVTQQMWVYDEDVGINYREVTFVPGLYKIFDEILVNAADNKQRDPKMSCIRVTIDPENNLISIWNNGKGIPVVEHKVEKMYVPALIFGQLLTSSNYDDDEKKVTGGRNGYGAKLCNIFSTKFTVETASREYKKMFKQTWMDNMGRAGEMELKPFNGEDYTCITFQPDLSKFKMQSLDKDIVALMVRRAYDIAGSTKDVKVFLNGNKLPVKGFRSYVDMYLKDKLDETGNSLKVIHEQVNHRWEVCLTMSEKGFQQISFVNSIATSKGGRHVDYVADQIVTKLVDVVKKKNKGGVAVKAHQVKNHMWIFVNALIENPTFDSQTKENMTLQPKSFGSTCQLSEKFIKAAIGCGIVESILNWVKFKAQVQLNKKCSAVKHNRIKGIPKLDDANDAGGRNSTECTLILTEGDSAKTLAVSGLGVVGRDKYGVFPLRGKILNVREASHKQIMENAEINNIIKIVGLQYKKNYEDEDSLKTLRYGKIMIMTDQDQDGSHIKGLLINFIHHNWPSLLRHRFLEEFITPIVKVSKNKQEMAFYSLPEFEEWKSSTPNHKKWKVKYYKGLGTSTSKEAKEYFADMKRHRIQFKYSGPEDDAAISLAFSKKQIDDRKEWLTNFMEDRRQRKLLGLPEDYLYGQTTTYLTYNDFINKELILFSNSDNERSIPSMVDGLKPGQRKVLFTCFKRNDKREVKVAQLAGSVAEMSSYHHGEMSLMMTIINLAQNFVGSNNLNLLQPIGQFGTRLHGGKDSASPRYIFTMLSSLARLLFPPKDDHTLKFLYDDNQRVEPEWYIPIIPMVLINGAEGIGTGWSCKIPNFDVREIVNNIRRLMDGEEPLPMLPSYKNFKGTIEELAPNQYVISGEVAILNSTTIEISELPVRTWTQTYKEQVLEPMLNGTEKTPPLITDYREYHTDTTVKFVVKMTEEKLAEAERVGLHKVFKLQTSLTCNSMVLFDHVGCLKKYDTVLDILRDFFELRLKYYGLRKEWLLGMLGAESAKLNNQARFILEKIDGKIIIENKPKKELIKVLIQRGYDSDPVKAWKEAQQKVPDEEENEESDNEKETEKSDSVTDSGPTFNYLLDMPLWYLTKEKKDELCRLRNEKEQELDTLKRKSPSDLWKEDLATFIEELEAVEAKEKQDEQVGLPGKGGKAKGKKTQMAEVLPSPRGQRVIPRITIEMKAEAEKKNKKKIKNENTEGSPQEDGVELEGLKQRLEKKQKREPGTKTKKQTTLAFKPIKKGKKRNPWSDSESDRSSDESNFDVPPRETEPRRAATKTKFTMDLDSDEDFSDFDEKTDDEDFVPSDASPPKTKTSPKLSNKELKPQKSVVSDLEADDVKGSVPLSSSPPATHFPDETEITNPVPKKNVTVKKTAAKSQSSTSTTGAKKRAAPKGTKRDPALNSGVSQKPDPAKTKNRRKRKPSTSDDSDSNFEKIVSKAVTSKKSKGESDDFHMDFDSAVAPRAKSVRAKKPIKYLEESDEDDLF

For the compound `FC(F)(F)c1nnc2c3ccccc3nc(NC3CCCCC3)n12` [Compound 19, N-Cyclohexyl-3-(trifluoromethyl)-[1,2,4]triazolo[4,3-c]quinazolin-5-amine], the IC50 in the assay on HepG2 cell line was 8.91 ± 0.2 µM; in assay [1] (setting [3]) it was 23.6 ± 1.3 µM; in assay [2], 18.7 ± 0.9 µM; in the assay with HCT-116 cell line, 9.43 ± 0.3 µM. Further, the “LogIC50 (best-fit value, DNA/Topo-II Inhibition (%) curve)” value in assay [1] (supplement curve fit) was 1.373. In assay [1] (supplement curve fit), the “HillSlope (best-fit value, DNA/Topo-II Inhibition (%) curve)” value is 0.3612.

With `CCCNc1nc2ccccc2c2nnc(-c3ccc(C)cc3)n12` [Compound 11a, N-Propyl-3-(p-tolyl)-[1,2,4]triazolo[4,3-c]quinazolin-5-amine], the results for the IC50 in the assay on HepG2 cell line and in the assay on HCT-116 cell line were 15.5 ± 1 µM and 8.42 ± 0.3 µM, respectively.

With `OCCNc1nc2ccccc2c2nnc(-c3ccc(Cl)cc3)n12` [Compound 12b, 2-((3-(4-Chlorophenyl)-[1,2,4]triazolo[4,3-c]quinazolin-5-yl)amino)ethan-1-ol], the IC50 with HepG2 cell line was determined as 17.8 ± 0.9 µM; in the assay with HCT-116 cell line it was 7.03 ± 0.2 µM.

As to `CN(C)c1nc2ccccc2c2nnc(-c3ccc(Cl)cc3)n12` [Compound 13b, 3-(4-Chlorophenyl)-N,N-dimethyl-[1,2,4]triazolo[4,3-c]quinazolin-5-amine], the IC50 came to 33.1 ± 1.7 µM in the assay on HepG2 cell line and 16.9 ± 0.9 µM in the assay on HCT-116 cell line.

On to `Clc1ccc(-c2nnc3c4ccccc4nc(NC4CCCCC4)n23)cc1` [Compound 14b, 3-(4-Chlorophenyl)-N-cyclohexyl-[1,2,4]triazolo[4,3-c]quinazolin-5-amine], for which the IC50 with HepG2 cell line was 29.5 ± 1.2 µM; with HCT-116 cell line, 17.4 ± 0.4 µM.

For `Clc1ccc(-c2nnc3c4ccccc4nc(N4CCOCC4)n23)cc1` [Compound 15b, 4-(3-(4-Chlorophenyl)-[1,2,4]triazolo[4,3-c]quinazolin-5-yl)morpholine], the IC50 was determined as 23.4 ± 0.9 µM with HepG2 cell line and 21 ± 0.3 µM with HCT-116 cell line.

Consider `CCCNc1nc2ccccc2c2nnc(-c3ccc(Cl)cc3)n12` [Compound 11b, 3-(4-Chlorophenyl)-N-propyl-[1,2,4]triazolo[4,3-c]quinazolin-5-amine], for which the IC50 in the assay on HepG2 cell line was determined as 29.9 ± 1.3 µM; in the assay with HCT-116 cell line, 25 ± 0.9 µM.

`FC(F)(F)c1nnc2c3ccccc3nc(N3CCOCC3)n12` [Compound 20, 4-(3-(Trifluoromethyl)-[1,2,4]triazolo[4,3-c]quinazolin-5-yl)morpholine]: the IC50 with HepG2 cell line turned out to be 8.34 ± 0.3 µM; in assay [1] (setting [3]), 34.5 ± 1.2 µM; in assay [2], 20.6 ± 0.9 µM; in the assay on HCT-116 cell line, 4.61 ± 0.2 µM. Further, the “LogIC50 (best-fit value, DNA/Topo-II Inhibition (%) curve)” value in assay [1] (supplement curve fit) is listed as 1.538. In addition, the “HillSlope (best-fit value, DNA/Topo-II Inhibition (%) curve)” value in assay [1] (supplement curve fit) stood at 0.3425.

Regarding `CN(C)c1nc2ccccc2c2nnc(C(F)(F)F)n12` [Compound 18, N,N-Dimethyl-3-(trifluoromethyl)-[1,2,4]triazolo[4,3-c]quinazolin-5-amine], the IC50 amounted to 6.82 ± 0.2 µM in the assay on HepG2 cell line, 12.5 ± 0.6 µM in assay [1] (setting [3]), 18.3 ± 0.8 µM in assay [2] and 4.17 ± 0.1 µM in the assay on HCT-116 cell line. In addition, the “LogIC50 (best-fit value, DNA/Topo-II Inhibition (%) curve)” value in assay [1] (supplement curve fit) stood at 1.098. Also, the “HillSlope (best-fit value, DNA/Topo-II Inhibition (%) curve)” value in assay [1] (supplement curve fit) is 0.3961.

In the case of `COc1cccc2c1C(=O)c1c(O)c3c(c(O)c1C2=O)C[C@@](O)(C(=O)CO)C[C@@H]3O[C@H]1C[C@H](N)[C@H](O)[C@H](C)O1` [Doxorubicin, reference compound], the IC50 with HepG2 cell line is 3.8 ± 0.1 µM; in assay [1] (setting [3]) it was 5.64 ± 0.1 µM; in assay [1] (supplement curve fit, read-out: IC50 (best-fit value, DNA/Topo-II Inhibition (%) curve)) it was 5.64 µM; with HCT-116 cell line, 1.87 ± 0.1 µM. Moreover, in assay [1] (supplement curve fit), the “HillSlope (best-fit value, DNA/Topo-II Inhibition (%) curve)” value was 0.3659.

As for `Cc1ccc(-c2nnc3c4ccccc4nc(N(C)C)n23)cc1` [Compound 13a, N,N-Dimethyl-3-(p-tolyl)-[1,2,4]triazolo[4,3-c]quinazolin-5-amine], the IC50 turned out to be 10.7 ± 0.6 µM in the assay with HepG2 cell line, 52.9 ± 1.6 µM in assay [1] (setting [3]), 36.1 ± 1.9 µM in assay [2] and 11.6 ± 0.5 µM in the assay on HCT-116 cell line. The “LogIC50 (best-fit value, DNA/Topo-II Inhibition (%) curve)” value in assay [1] (supplement curve fit) is listed as 1.723. Also, in assay [1] (supplement curve fit), the “HillSlope (best-fit value, DNA/Topo-II Inhibition (%) curve)” value came to 0.4587.

As to `Cc1ccc(-c2nnc3c4ccccc4nc(NC4CCCCC4)n23)cc1` [Compound 14a, N-Cyclohexyl-3-(p-tolyl)-[1,2,4]triazolo[4,3-c]quinazolin-5-amine], the IC50 in the assay on HepG2 cell line was 13 ± 0.5 µM; in assay [1] (setting [3]), 22.5 ± 0.9 µM; in assay [2], 30.4 ± 1.8 µM; in the assay with HCT-116 cell line it was 7.66 ± 0.2 µM. Moreover, the “LogIC50 (best-fit value, DNA/Topo-II Inhibition (%) curve)” value in assay [1] (supplement curve fit) stood at 1.353. The “HillSlope (best-fit value, DNA/Topo-II Inhibition (%) curve)” value in assay [1] (supplement curve fit) is on record as 0.4583.

For `Cc1ccc(-c2nnc3c4ccccc4nc(NCCO)n23)cc1` [Compound 12a, 2-((3-(p-Tolyl)-[1,2,4]triazolo[4,3-c]quinazolin-5-yl)amino)ethan-1-ol], the IC50 worked out at 18.8 ± 1.2 µM in the assay with HepG2 cell line and 11.9 ± 0.3 µM in the assay with HCT-116 cell line.

Turning to `OCCNc1nc2ccccc2c2nnc(C(F)(F)F)n12` [Compound 17, 2-((3-(Trifluoromethyl)-[1,2,4]triazolo[4,3-c]quinazolin-5-yl)amino)ethan-1-ol], the IC50 is 5.65 ± 0.1 µM in the assay on HepG2 cell line, 11.1 ± 0.7 µM in assay [1] (setting [3]), 17.7 ± 0.8 µM in assay [2] and 2.78 ± 0.1 µM in the assay with HCT-116 cell line. In assay [1] (supplement curve fit), the “LogIC50 (best-fit value, DNA/Topo-II Inhibition (%) curve)” value came to 1.045. For the same compound, the “HillSlope (best-fit value, DNA/Topo-II Inhibition (%) curve)” value in assay [1] (supplement curve fit) came out at 0.4423.

Turning to `Cc1ccc(-c2nnc3c4ccccc4nc(N4CCOCC4)n23)cc1` [Compound 15a, 4-(3-(p-Tolyl)-[1,2,4]triazolo[4,3-c]quinazolin-5-yl)morpholine], the IC50 in the assay with HepG2 cell line was found to be 20.4 ± 0.9 µM; in the assay on HCT-116 cell line, 20 ± 0.4 µM.
